Data from patent US20230107642A1 (Erasca, Inc., priority 2020, published 2023).

Target: T1, K-Ras G12C (Homo sapiens, UniProt P01116, G12C)
T1 construct: This protein contained 188 amino acids in total, including an N-terminal 6-Histidine tag; made in house; host or cells: E. coli BL21
Assay: CAF assay (% CAF; method in Example 7, not in this part)
Type: binding
Details: 10 uM compound, 1 h incubation

| SMILES | % CAF @ 10 uM, 1h [%] |
| --- | --- |
| C=CC(=O)N1CCN(c2nc(=O)n3c4c(c(-c5ccc(F)cc5F)c(C(F)(F)F)cc24)SC[C@@H]3COCOC)[C@@H](C)C1 (atropisomer, axis not shown) [Example 548, (3S,10R)-7-((S)-4-acryloyl-2-methylpiperazin-1-yl)-10-(2,4-difluorophenyl)-3-((methoxymethoxy)methyl)-9-(trifluoromethyl)-2,3-dihydro-5H-[1,4]thiazino[2,3,4-ij]quinazolin-5-one] | 95.7 |
| C=CC(=O)N1CCN(c2nc(=O)n3c4c(c(-c5ccc(F)cc5F)c(C(F)(F)F)cc24)SC[C@@H]3COCOC)[C@@H](C)C1 (atropisomer, axis not shown) [Example 549, (3S,10S)-7-((S)-4-acryloyl-2-methylpiperazin-1-yl)-10-(2,4-difluorophenyl)-3-((methoxymethoxy)methyl)-9-(trifluoromethyl)-2H-[1,4]thiazino[2,3,4-ij]quinazolin-5(3H)-one] | 80.2 |
| C=CC(=O)N1CCN(c2nc(=O)n3c4c(c(-c5cc(Cl)c(F)cc5F)c(C(F)(F)F)cc24)SC[C@@H]3COCOC)[C@@H](C)C1 (atropisomer, axis not shown) [Example 552, (3S,10R)-7-((S)-4-acryloyl-2-methylpiperazin-1-yl)-10-(5-chloro-2,4-difluorophenyl)-3-((methoxymethoxy)methyl)-9-(trifluoromethyl)-2,3-dihydro-5H-[1,4]thiazino[2,3,4-ij]quinazolin-5-one] | 62.2 |
| C=CC(=O)N1CCN(c2nc(=O)n3c4c(c(-c5cc(Cl)c(F)cc5F)c(C(F)(F)F)cc24)SC[C@@H]3COCOC)[C@@H](C)C1 (atropisomer, axis not shown) [Example 553, (3S,10S)-7-((S)-4-acryloyl-2-methylpiperazin-1-yl)-10-(5-chloro-2,4-difluorophenyl)-3-((methoxymethoxy)methyl)-9-(trifluoromethyl)-2H-[1,4]thiazino[2,3,4-ij]quinazolin-5(3H)-one] | 37 |
| C=CC(=O)N1C[C@H](C)N(c2nc(=O)n3c4c(c(-c5cc(Cl)c(F)cc5F)c(C(F)(F)F)cc24)SC[C@@H]3COCCOC)C[C@H]1C (atropisomer, axis not shown) [Example 554, (3S,10S)-7-((2S,5R)-4-acryloyl-2,5-dimethylpiperazin-1-yl)-10-(5-chloro-2,4-difluorophenyl)-3-((2-methoxyethoxy)methyl)-9-(trifluoromethyl)-2H-[1,4]thiazino[2,3,4-ij]quinazolin-5(3H)-one] | 11.3 |
| C=CC(=O)N1C[C@H](C)N(c2nc(=O)n3c4c(c(-c5cc(Cl)c(F)cc5F)c(C(F)(F)F)cc24)SC[C@@H]3COCCOC)C[C@H]1C (atropisomer, axis not shown) [Example 555, (3S,10R)-7-((2S,5R)-4-acryloyl-2,5-dimethylpiperazin-1-yl)-10-(5-chloro-2,4-difluorophenyl)-3-((2-methoxyethoxy)methyl)-9-(trifluoromethyl)-2,3-dihydro-5H-[1,4]thiazino[2,3,4-ij]quinazolin-5-one] | 67.6 |
| C=CC(=O)N1C[C@H](C)N(c2nc(=O)n3c4c(c(-c5cc(Cl)c(F)cc5F)c(C(F)(F)F)cc24)SC[C@@H]3CN2CCN(CC(F)F)CC2)C[C@H]1C (atropisomer, axis not shown) [Example 556, (3S,10R)-7-((2S,5R)-4-acryloyl-2,5-dimethylpiperazin-1-yl)-10-(5-chloro-2,4-difluorophenyl)-3-((4-(2,2-difluoroethyl)piperazin-1-yl)methyl)-9-(trifluoromethyl)-2H-[1,4]thiazino[2,3,4-ij]quinazolin-5(3H)-one] | 73.1 |
